The values below come from patent US9247759B2, “Identification of human T2R receptors that respond to bitter compounds that elicit the bitter taste in compositions, and the use thereof in assays to identify compounds that inhibit (block) bitter taste in compositions and use thereof” (SENOMYX, INC., priority 2007, dated 2016).

What is called IC50 is the point on the concentration scale where inhibition reaches its midpoint.

In test [1] the test system is hT2R44. The experiment in a line: hT2R panel inhibition, transient HEK293 G16g44, agonist Denatonium 0.5 μM. The format is cell-based, human. The following applies: compound at 25 μM; receptor activated to EC80 with the corresponding agonist. In a few lines:
(§1)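 The test compound's selectivity was profiled by challenging each transiently expressed human T2R with its activating bitter ligand at an EC80 concentration, inhibition being the reduction of receptor signalling it produced.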

The test system of test [2] is hT2R55. The experiment in a line: hT2R panel inhibition, transient HEK293 G16g44, agonist Cinchonine 150 μM. The following applies: compound at 25 μM; receptor activated to EC80 with the corresponding agonist. The format is cell-based, human. The procedure, abridged:
as §1

Test [3] has as its target hT2R4 (Homo sapiens (Human), UniProt Q9NYW5). The experiment in a line: hT2R panel inhibition, transient HEK293 G16g44, agonist Chloroquine pH6.5 5 mM. The test is classed as cell-based. The following applies: HEK293, compound at 25 μM; receptor activated to EC80 with the corresponding agonist; class symbols; read-out: screening result against bitter receptor 4. The procedure, abridged: as §1

The target of test [4] is T1, hT2R14 (Homo sapiens (Human), UniProt Q9NYV8). The experiment in a line: hT2R panel inhibition, transient HEK293 G16g44, agonist Aristolochic Acid 2 μM. The format is cell-based. The following applies: HEK293, compound at 25 μM; receptor activated to EC80 with the corresponding agonist; read-out: screening result against bitter receptor 14. In a few lines: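 Each hT2R was transiently transfected into HEK293 cells stably expressing G16g44 and assayed functionally for inhibition of agonist response. Agonists were applied at EC80: andrographolide at 0.5 mM for hT2R8 and aristolochic acid at 2 μM for hT2R14.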
T1 sequence (Q9NYV8 whole entry): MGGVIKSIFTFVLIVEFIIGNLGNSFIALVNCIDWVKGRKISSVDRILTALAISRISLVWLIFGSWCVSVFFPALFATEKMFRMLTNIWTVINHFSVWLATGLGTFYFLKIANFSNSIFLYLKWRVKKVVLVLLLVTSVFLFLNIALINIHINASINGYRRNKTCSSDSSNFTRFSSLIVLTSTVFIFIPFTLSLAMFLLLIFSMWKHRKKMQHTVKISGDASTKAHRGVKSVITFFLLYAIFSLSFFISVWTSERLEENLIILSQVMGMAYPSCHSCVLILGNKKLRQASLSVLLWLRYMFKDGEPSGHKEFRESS

Test [5] concerns the target hT2R51 (Homo sapiens (Human), UniProt P59533). In words: hT2R panel inhibition, transient HEK293 G16g44, agonist Prop 2.5 μM. The test is classed as cell-based. The following applies: HEK293, compound at 25 μM; receptor activated to EC80 with the corresponding agonist; read-out: screening result against bitter receptor 51. The procedure, abridged:
as §1

Test [6] has as its system hT2R54. The experiment in a line: hT2R panel inhibition, transient HEK293 G16g44, agonist Ranitidine 5 mM. The test is classed as cell-based, human. The following applies: compound at 25 μM; receptor activated to EC80 with the corresponding agonist. In a few lines:
as §1

In test [7] the target is hT2R16 (Homo sapiens (Human), UniProt Q9NYV7). The experiment in a line: hT2R panel inhibition, transient HEK293 G16g44, agonist Salicin 1 mM. The test is classed as cell-based. The following applies: HEK293, compound at 25 μM; receptor activated to EC80 with the corresponding agonist; read-out: screening result against bitter receptor 16. The procedure, abridged: as §1
Sequence of hT2R16 (Q9NYV7 whole entry): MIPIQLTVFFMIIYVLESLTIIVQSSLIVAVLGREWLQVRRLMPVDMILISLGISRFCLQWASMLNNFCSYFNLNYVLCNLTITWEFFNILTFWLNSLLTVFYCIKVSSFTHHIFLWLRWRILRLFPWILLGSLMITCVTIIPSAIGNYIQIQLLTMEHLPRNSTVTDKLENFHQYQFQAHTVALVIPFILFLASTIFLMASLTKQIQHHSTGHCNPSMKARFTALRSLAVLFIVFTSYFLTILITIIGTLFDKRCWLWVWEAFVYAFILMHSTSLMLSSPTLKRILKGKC
The subject of test [8] is hT2R63. The experiment in a line: hT2R panel inhibition, transient HEK293 G16g44, agonist Caffeine 1 mM or Andrographolide 100 μM. The following applies: compound at 25 μM; receptor activated to EC80 with the corresponding agonist. The format is cell-based, human. The procedure, abridged:
as §1

The subject of test [9] is hT2R65. The experiment in a line: hT2R panel inhibition, transient HEK293 G16g44, agonist Oleuropein 1 mM. The test is classed as cell-based, human. The following applies: compound at 25 μM; receptor activated to EC80 with the corresponding agonist. In a few lines:
as §1

For test [10], the target named is hT2R9 (Homo sapiens (Human), UniProt Q9NYW1). In words: hT2R panel inhibition, transient HEK293 G16g44, agonist Ofloxacin 1 mM. The format is cell-based. The following applies: HEK293, compound at 25 μM; receptor activated to EC80 with the corresponding agonist; read-out: screening result against bitter receptor 9. Here is the method:
Specifically, in order to evaluate the inhibitory selectivity of the Compound C compound, this compound was tested against 22 human T2Rs which were deorphaned by Senomyx. These receptors and the bitter ligands that activate these human T2Rs are reported in earlier patent applications which are incorporated by reference herein. These 22 human T2Rs are hT2R1, 3, 4, 5, 7, 8, 9, 10, 13, 14, 16, 44, 51, 54, 55, 61, 63, 64, 65, 67, 71 and 75. The amino acid and nucleic acid sequences of all of these T2Rs may be found in these earlier patent applications. These human T2Rs were each individually transiently transfected into HEK293 cells that stably express the promiscuous G protein G16g44 and functional assays were effected using these receptors as disclosed in these same patent applications. […] The ligands were used at EC80 concentration levels. The list of bitter ligands utilized and the tested ligand concentrations are contained in Table 5 of this example.
Relating to the foregoing, FIG. 5 contains experimental results wherein Compound C was tested with different agonist compounds. The inhibition activity is represented by the reduction of receptor activity in the presence of Compound C. […] These 13 hT2Rs are hT2R3, 7, 10, 14, 16, 44, 51, 55, 61, 63, 64, 65, and 71.

Test [11] concerns the target T1, hT2R14. The experiment in a line: hT2R14 antagonist high-throughput FLIPR assay, stable cell line with G16g44, agonist aristolochic acid. The following applies: read-out: IC50 on hT2R14 bitter receptor. The test is classed as cell-based. In a few lines:
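HEK293 cells stably expressing hT2R14 with chimeric G16g44 were stimulated with aristolochic acid (3 μM), giving 70-80% of maximal receptor activity. Test compounds were added together with the agonist, and antagonism was read as fluorescent calcium signal on FLIPR.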

The target in test [12] is hT2R3 (Homo sapiens (Human), UniProt Q9NYW6). The experiment in a line: hT2R panel inhibition, transient HEK293 G16g44, agonist Chloroquine pH6.5 50 μM. The format is cell-based. The following applies: HEK293, compound at 25 μM; receptor activated to EC80 with the corresponding agonist; read-out: screening result against bitter receptor 3. In a few lines: as §1
Sequence of hT2R3 (Q9NYW6 whole entry): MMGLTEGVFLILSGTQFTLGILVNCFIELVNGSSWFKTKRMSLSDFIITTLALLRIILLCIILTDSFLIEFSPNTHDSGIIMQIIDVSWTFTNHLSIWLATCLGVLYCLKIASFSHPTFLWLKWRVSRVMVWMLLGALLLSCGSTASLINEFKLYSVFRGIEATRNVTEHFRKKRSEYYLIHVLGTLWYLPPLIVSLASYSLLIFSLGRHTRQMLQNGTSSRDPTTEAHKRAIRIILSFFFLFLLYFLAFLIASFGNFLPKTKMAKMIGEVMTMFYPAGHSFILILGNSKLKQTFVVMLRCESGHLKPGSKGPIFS
In test [13] the target is hT2R10 (Homo sapiens (Human), UniProt Q9NYW0). In words: hT2R panel inhibition, transient HEK293 G16g44, agonist Strychnine 50 μM. The format is cell-based. The following applies: HEK293, read-out: screening result against bitter receptor 10, compound at 25 μM; receptor activated to EC80 with the corresponding agonist.
Sequence of hT2R10 (Q9NYW0 whole entry): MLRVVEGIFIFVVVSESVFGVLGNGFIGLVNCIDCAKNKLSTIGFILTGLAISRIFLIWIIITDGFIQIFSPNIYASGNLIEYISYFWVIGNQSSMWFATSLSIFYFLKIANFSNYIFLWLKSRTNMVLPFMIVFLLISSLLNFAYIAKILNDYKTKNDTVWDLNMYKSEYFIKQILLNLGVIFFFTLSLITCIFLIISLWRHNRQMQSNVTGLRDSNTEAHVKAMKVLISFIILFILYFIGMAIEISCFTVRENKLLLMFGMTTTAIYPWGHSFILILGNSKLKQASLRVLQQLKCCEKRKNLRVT
Test [14] concerns the target hT2R71 (Homo sapiens (Human), UniProt P59536). In words: hT2R panel inhibition, transient HEK293 G16g44, agonist Picric Acid 10 μM. The format is cell-based. The following applies: HEK293, compound at 25 μM; receptor activated to EC80 with the corresponding agonist; read-out: screening result against bitter receptor 71. In a few lines:
as §1

Test [15] has as its target hT2R61 (Homo sapiens (Human), UniProt P59537). The experiment in a line: hT2R panel inhibition, transient HEK293 G16g44, agonist Aristolochic Acid 25 nM. The following applies: HEK293, compound at 25 μM; receptor activated to EC80 with the corresponding agonist; read-out: screening result against bitter receptor 61. The test is classed as cell-based. The procedure, abridged: as §1

Test [16] deals with hT2R64 (Homo sapiens (Human), UniProt P59538). In words: hT2R panel inhibition, transient HEK293 G16g44, agonist Aristolochic Acid 1 μM. The format is cell-based. The following applies: HEK293, compound at 25 μM; receptor activated to EC80 with the corresponding agonist; read-out: screening result against bitter receptor 64. The procedure, abridged: as §1
Sequence of hT2R64 (P59538 whole entry): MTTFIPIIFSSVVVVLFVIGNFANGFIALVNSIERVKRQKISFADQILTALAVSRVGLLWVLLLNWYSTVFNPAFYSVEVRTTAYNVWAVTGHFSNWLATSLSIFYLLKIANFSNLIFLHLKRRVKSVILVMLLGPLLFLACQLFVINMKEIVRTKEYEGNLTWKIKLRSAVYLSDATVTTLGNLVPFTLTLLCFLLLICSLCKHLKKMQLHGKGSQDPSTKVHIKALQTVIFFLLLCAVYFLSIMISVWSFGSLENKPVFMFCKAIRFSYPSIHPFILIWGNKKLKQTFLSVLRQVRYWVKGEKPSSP
Test [17] addresses hT2R7 (Homo sapiens (Human), UniProt Q9NYW3). The experiment in a line: hT2R panel inhibition, transient HEK293 G16g44, agonist Chloroquine pH6.5 10 mM. The format is cell-based. The following applies: HEK293, compound at 25 μM; receptor activated to EC80 with the corresponding agonist; read-out: screening result against bitter receptor 7. In a few lines:
as §1

Test [18] deals with hT2R5 (Homo sapiens (Human), UniProt Q9NYW4). The experiment in a line: hT2R panel inhibition, transient HEK293 G16g44, agonist Picoline 10 mM. The test is classed as cell-based. The following applies: HEK293, compound at 25 μM; receptor activated to EC80 with the corresponding agonist; read-out: screening result against bitter receptor 5. In a few lines:
as §1

Each structure is given as a SMILES string.

Sequence of hT2R9 (Q9NYW1 whole entry): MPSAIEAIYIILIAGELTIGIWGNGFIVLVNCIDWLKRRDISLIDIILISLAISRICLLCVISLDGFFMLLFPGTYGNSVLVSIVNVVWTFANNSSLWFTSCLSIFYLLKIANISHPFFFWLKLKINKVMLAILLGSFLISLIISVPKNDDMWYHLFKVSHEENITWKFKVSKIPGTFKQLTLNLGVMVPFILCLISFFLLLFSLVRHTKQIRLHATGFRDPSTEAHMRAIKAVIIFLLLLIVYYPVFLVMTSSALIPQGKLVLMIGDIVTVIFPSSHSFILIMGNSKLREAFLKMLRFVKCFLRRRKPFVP
Sequence of hT2R51 (P59533 whole entry): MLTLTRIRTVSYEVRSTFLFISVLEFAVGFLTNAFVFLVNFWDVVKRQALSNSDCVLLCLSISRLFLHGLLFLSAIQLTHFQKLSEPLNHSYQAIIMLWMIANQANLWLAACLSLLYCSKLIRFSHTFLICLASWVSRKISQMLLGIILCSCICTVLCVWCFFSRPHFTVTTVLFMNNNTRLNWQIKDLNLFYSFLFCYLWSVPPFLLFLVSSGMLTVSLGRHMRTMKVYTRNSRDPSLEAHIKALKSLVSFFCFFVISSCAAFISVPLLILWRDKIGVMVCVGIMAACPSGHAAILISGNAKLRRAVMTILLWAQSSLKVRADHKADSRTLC
Sequence of hT2R61 (P59537 whole entry): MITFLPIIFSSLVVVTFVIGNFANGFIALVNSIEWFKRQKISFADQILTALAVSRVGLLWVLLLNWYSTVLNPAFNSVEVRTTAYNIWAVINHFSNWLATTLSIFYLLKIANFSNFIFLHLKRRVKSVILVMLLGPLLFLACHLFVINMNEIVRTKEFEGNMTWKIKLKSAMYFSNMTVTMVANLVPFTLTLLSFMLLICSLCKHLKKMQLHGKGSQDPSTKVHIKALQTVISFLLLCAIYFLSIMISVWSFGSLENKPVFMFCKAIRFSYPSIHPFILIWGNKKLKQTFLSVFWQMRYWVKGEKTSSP
Sequence of hT2R71 (P59536 whole entry): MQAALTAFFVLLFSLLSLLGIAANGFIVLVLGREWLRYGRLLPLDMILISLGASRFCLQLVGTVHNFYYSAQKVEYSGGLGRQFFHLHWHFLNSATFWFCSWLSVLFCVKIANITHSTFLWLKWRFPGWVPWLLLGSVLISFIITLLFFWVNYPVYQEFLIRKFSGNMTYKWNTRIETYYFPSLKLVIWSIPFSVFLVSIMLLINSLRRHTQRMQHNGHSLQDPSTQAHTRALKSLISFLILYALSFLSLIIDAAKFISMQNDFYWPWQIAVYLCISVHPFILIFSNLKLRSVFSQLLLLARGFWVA
Sequence of hT2R7 (Q9NYW3 whole entry): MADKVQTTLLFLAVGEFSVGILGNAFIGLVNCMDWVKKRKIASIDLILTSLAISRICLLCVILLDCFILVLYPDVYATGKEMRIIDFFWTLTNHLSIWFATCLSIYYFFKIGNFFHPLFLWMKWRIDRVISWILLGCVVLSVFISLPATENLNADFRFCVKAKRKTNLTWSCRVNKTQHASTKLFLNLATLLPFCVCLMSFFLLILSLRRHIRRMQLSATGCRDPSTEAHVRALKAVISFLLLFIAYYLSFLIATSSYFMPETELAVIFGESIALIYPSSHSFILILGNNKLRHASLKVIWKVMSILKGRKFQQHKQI
Sequence of hT2R5 (Q9NYW4 whole entry): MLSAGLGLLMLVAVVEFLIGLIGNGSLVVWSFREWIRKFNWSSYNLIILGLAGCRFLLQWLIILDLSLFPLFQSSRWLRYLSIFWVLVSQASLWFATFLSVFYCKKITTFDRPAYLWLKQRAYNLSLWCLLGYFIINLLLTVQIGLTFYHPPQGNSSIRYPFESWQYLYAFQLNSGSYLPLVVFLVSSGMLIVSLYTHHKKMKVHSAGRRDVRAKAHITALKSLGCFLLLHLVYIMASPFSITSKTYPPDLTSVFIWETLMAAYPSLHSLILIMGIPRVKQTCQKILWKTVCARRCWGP
Sequence of hT2R4 (Q9NYW5 whole entry): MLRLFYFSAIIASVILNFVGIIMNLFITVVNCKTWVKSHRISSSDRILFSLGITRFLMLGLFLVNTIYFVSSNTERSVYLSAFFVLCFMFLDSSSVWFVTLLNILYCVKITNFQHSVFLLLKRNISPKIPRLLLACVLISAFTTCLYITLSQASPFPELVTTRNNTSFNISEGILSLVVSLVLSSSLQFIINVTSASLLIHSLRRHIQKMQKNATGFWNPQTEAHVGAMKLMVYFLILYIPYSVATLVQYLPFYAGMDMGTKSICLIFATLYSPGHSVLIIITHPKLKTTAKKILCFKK

Consider `CCOc1ccc(CN(Cc2ccco2)S(=O)(=O)c2ccc(C(=O)O)cc2)cc1` [Example 5-3, 4-(N-(4-ethoxybenzyl)-N-(furan-2-ylmethyl)sulfamoyl)benzoic acid], for which the “screening result against bitter receptor 44” value in test [1] was “++ (40% to 60% inhibition = ++)”. Further, the “screening result against bitter receptor 55” value in test [2] is reported as “++++ (80% or greater inhibition = ++++)”. Further, the inhibition at 25 µM in test [3] was 60 to 80%; in [4], > 80%; in test [5], 20 to 40%; in test [7] it was 20 to 40%; in test [10], 20 to 40%; in test [12], 40 to 60%. Also, the inhibition at 25 µM in [13] is 40 to 60%; in test [14] it was 20 to 40%; in [15], 40 to 60%; in test [16], > 80%. Besides, the “screening result against bitter receptor 54” value in test [6] is listed as “++ (40% to 60% inhibition = ++)”. The “screening result against bitter receptor 63” value in test [8] is on record as “+++ (60% to 80% inhibition = +++)”. The “screening result against bitter receptor 65” value in [9] is recorded as “+ (20% to 40% inhibition = +)”. In addition, the IC50 in test [11] stood at 3 µM.
Turning to `COc1ccc(CN(Cc2ccccc2)S(=O)(=O)c2ccc(C(=O)O)cc2)c(OC)c1` [Example 5-13, 4-(N-benzyl-N-(2,4-dimethoxybenzyl)sulfamoyl)benzoic acid], the “screening result against bitter receptor 44” value in test [1] is “+++ (60% to 80% inhibition = +++)”. The inhibition at 25 µM was 20 to 40% in test [17]; > 80% in test [4]; 20 to 40% in [5]; 20 to 40% in [7]; 20 to 40% in test [18]; 20 to 40% in test [10]. The inhibition at 25 µM is 40 to 60% in test [12]; 20 to 40% in [13]; 40 to 60% in [14]; > 80% in [15]; 60 to 80% in [16]. Further, in [2], the “screening result against bitter receptor 55” value is listed as “++++ (80% or greater inhibition = ++++)”. Moreover, the “screening result against bitter receptor 54” value in test [6] is “+++ (60% to 80% inhibition = +++)”. Also, the “screening result against bitter receptor 63” value in test [8] is “++++ (80% or greater inhibition = ++++)”. For the same molecule, the “screening result against bitter receptor 65” value in test [9] is “+ (20% to 40% inhibition = +)”.
